This is an account of results in ChEMBL document CHEMBL1201862, “PubChem BioAssay data set” (2004).

Active and inactive are the calls of the source. Where only a bound is given, the exact number is not on record here.

In one assay the test system is HEK293. The assay is described as follows: Fluorescence-based counterscreen for potentiators or agonists of NPY-Y2: cell-based high-throughput dose response assay to identify inhibitors of cyclic nucleotide gated ion channel (CNGC) activity. In this assay, the parental HEK293 cell line transfected with a cyclic-nucleotide gated ion channel (CNGC)-based cAMP sensor is used to measure inhibition of isoproterenol-induced CNGC activity by test compound. As to conditions: Homo sapiens. Format: functional.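 Note: stimulus is 1 µM isoproterenol at EC100 plus PDE inhibitor Ro 20-1724 at 25 µM.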

For assay [1], the target named is Neuropeptide Y receptor type 1 (Homo sapiens, UniProt P25929). The experiment in a line: Fluorescence-based counterscreen for agonists of NPY-Y2: cell-based high-throughput dose response assay for agonists of NPY-Y1. Format: functional.
Chain of Neuropeptide Y receptor type 1 (P25929 whole entry): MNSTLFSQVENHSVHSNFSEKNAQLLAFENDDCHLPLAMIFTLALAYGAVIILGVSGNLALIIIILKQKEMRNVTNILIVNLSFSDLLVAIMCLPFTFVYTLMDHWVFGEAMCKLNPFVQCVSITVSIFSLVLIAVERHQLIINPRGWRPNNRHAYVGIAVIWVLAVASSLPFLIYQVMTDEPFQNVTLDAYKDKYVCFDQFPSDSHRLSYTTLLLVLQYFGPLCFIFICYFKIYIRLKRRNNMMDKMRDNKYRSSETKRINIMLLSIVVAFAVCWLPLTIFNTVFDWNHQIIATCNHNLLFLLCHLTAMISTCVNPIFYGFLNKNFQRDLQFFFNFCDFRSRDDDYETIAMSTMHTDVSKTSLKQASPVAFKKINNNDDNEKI
In assay [2] the target is Neuropeptide Y receptor type 2 (Homo sapiens, UniProt P49146). The assay is described as follows: Fluorescence-based cell-based high-throughput dose response assay for agonists of NPY-Y2. [Related pubchem assays: 1703 (Screening assay (CNGC inhibitors).), 1359 (Screening assay (NPY-Y2 potentiators or agonists).), 1304 (Screening assay (NPY-Y1 potentiators or agonists).), 1710 (Screening assay (NPY-Y2 agonists).), 1791 (Summary AID.)]. Format: functional.
Chain of Neuropeptide Y receptor type 2 (P49146 whole entry): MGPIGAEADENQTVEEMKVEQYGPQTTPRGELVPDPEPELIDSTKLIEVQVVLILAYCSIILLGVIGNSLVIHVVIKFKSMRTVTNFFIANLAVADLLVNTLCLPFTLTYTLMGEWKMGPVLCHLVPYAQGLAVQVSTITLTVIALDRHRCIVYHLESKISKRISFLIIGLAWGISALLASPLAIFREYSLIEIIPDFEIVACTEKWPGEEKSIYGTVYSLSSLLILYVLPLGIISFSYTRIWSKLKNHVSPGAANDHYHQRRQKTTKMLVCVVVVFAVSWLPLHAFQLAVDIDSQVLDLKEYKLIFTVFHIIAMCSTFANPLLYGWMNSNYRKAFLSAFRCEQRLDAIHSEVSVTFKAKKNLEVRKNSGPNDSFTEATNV

A further assay has as its target T1, Aspartyl aminopeptidase (Plasmodium falciparum 3D7, UniProt Q8I2J3).
T1 sequence (Q8I2J3 whole entry): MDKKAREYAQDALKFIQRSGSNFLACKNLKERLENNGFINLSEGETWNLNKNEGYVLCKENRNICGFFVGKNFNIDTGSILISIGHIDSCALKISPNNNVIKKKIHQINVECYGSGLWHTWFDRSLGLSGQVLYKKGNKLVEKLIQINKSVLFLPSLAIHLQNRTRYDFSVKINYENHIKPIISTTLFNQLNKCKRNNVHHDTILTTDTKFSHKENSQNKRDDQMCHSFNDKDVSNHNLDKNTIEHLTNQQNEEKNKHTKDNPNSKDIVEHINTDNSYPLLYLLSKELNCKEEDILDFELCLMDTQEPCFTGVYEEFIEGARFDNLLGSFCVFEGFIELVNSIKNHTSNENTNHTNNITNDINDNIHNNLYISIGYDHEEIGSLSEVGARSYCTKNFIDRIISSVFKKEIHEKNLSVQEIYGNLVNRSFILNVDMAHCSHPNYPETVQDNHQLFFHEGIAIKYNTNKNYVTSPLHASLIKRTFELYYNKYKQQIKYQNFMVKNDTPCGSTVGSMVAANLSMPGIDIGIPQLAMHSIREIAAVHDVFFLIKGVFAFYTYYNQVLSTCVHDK

A further assay has as its target Procathepsin L (Homo sapiens, UniProt P07711).
The target in assay [3] is Lysosomal acid glucosylceramidase (Homo sapiens, UniProt P04062). The experiment in a line: Dose response cell-based high throughput screening assay to identify enhancers of beta-glucosidase activity. [Related pubchem assays: 784 ]. The format is functional.
Chain of Lysosomal acid glucosylceramidase (P04062 whole entry): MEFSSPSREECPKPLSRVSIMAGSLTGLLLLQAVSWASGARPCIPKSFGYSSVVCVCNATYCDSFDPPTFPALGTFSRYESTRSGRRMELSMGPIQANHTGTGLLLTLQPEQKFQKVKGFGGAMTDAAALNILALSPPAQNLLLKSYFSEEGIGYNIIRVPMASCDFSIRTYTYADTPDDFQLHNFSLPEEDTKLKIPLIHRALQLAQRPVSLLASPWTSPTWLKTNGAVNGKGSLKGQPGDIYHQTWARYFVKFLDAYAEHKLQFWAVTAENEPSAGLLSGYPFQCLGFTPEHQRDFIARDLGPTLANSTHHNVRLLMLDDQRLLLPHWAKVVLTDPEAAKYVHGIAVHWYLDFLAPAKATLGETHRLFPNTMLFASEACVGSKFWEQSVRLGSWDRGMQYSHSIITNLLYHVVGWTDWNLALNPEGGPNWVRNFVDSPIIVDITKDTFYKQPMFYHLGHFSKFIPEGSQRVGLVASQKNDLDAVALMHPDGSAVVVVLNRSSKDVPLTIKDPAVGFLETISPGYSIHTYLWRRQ
In another assay the target is Cytochrome P450 2C9 (Homo sapiens, UniProt P11712). The settings on record: Potency.
Chain of Cytochrome P450 2C9 (P11712 whole entry): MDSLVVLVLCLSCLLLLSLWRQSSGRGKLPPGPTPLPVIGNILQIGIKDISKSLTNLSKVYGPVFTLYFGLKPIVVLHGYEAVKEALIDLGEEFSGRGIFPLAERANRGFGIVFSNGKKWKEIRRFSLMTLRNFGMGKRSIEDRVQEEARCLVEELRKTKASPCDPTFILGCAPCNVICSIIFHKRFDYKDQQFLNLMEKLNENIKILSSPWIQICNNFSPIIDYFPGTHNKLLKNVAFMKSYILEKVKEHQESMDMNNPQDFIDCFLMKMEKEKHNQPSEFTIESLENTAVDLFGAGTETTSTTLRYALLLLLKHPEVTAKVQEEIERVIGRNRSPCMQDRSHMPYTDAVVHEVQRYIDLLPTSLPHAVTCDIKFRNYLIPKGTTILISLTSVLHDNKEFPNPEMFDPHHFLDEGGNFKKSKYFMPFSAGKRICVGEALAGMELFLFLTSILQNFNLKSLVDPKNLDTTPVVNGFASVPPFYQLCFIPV
The target of the next assay is Cytochrome P450 2C19 (Homo sapiens, UniProt P33261). The experiment in a line: qHTS Assay for Inhibitors and Substrates of Cytochrome P450 2C19. [Related pubchem assays: 410 ]. As to conditions: read-out: Potency. The format is ADME.
Chain of Cytochrome P450 2C19 (P33261 whole entry): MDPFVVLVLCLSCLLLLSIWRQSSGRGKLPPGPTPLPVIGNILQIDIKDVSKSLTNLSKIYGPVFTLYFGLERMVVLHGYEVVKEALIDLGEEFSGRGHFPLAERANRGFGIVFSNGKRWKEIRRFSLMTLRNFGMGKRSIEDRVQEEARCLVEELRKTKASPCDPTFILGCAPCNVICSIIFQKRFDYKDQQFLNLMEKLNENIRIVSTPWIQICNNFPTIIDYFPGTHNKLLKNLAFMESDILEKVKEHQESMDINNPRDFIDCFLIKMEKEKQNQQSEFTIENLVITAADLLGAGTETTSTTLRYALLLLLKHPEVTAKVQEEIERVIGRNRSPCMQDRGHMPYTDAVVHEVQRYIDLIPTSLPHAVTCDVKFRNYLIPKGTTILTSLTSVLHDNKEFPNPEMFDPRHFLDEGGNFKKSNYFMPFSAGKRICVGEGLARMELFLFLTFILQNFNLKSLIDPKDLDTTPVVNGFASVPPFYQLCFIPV
Assay [4] is described as follows: Luminescence Cell-Based Dose Retest to Confirm Inhibitors of Cancer Stem Cells. [Related pubchem assays (depositor defined):AID2717, AID2721]. Format: functional. As to conditions: Homo sapiens.
In assay [5] the target is Neurotensin receptor type 1 (Homo sapiens, UniProt P30989). The format is functional.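 Note: Image-based confirmatory dose-response assay measuring agonist activity at NTR1; NTR1-expressing U2OS osteosarcoma cells imaged for beta-arrestin GFP spot formation; agonist potency where compounds increase beta-arrestin recruitment.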
Chain of Neurotensin receptor type 1 (P30989 whole entry): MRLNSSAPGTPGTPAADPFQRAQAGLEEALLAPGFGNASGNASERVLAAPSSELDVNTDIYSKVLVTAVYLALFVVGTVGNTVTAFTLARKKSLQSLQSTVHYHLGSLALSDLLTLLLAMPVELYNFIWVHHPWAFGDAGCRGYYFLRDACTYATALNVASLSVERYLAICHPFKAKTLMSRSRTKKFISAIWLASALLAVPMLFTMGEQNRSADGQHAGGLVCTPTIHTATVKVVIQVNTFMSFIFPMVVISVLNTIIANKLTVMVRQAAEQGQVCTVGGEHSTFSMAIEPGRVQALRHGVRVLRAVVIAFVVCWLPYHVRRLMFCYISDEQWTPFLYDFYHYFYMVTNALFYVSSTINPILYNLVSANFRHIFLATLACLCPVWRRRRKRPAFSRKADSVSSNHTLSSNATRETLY
Assay [6] has as its target T2, Microphthalmia-associated transcription factor (Homo sapiens, UniProt O75030).
T2 sequence (O75030 whole entry): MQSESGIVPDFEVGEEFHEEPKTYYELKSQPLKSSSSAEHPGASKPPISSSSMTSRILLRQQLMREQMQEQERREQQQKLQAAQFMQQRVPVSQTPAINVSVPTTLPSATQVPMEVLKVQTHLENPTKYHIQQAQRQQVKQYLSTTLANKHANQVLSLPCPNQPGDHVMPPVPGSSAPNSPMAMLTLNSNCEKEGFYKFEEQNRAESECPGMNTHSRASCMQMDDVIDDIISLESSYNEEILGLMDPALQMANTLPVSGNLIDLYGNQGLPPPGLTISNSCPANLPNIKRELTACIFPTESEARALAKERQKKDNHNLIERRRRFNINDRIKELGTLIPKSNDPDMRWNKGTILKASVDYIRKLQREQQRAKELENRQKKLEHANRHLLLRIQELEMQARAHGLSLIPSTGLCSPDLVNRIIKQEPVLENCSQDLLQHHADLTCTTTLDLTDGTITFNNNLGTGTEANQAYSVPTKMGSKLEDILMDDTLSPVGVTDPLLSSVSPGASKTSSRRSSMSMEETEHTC
The assay is described as follows: TRPM1 promoter luciferase signal decrease, dose response, MITF inhibitor project, cell-based, SK-MEL-5, cherry-picked, set 3 (AID 493073).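 Note: SK-MEL-5 melanoma cells with luciferase driven by the MITF target TRPM1 promoter.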 The format is functional.

Assay [7] deals with Acyl-homoserine lactone acylase PvdQ (Pseudomonas aeruginosa (strain LESB58), UniProt Q9I194). The experiment in a line: P. aeruginosa PvdQ acylase inhibitors, dose response, biochemical, fluorescence, plate reader and imaging, cherry-picks (AID 493231).
Chain of Acyl-homoserine lactone acylase PvdQ (Q9I194 24-193 limits assumed): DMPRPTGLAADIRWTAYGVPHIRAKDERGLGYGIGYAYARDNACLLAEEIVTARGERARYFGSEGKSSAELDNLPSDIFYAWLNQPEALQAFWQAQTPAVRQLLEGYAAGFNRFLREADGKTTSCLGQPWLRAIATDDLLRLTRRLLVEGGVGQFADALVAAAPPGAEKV
Chain of Acyl-homoserine lactone acylase PvdQ (Q9I194 217-762 limits assumed): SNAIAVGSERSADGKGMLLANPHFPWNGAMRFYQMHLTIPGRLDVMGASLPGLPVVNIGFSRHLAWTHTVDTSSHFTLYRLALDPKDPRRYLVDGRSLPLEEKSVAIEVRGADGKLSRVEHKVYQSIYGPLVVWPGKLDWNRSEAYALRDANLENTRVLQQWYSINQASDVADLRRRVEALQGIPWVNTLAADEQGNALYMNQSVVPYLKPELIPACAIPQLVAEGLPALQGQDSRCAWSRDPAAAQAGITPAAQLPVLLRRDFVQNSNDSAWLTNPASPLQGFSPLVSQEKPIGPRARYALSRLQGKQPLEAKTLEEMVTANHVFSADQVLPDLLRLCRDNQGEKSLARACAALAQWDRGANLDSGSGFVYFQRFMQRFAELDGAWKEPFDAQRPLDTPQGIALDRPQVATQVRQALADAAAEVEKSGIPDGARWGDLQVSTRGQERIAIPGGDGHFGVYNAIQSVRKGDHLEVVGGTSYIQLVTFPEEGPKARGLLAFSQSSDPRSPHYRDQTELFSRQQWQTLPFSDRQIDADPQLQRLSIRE
The target of assay [8] is T3, Low molecular weight phosphotyrosine protein phosphatase (Homo sapiens, UniProt P24666).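 Note: Dose-response confirmation assay measuring inhibition of LMPTP enzyme activity by fluorescence intensity read-out.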
T3 sequence (P24666 whole entry): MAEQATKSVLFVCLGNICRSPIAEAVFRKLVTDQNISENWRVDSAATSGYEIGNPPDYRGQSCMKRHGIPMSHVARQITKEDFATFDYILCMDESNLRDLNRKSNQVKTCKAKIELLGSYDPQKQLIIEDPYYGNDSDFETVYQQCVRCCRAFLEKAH
Format: functional. As to conditions: read-out: IC50_Mean.

A further assay addresses Large T antigen (Simian virus 40, UniProt P03070). Format: functional, Betapolyomavirus macacae.
Assay [9] concerns the target T4, Nuclear receptor subfamily 0 group B member 1 (Homo sapiens, UniProt P51843).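 Note: HEK293T cells transfected with SF-1 and DAX-1 plus StAR promoter luciferase reporter.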
T4 sequence (P51843 whole entry): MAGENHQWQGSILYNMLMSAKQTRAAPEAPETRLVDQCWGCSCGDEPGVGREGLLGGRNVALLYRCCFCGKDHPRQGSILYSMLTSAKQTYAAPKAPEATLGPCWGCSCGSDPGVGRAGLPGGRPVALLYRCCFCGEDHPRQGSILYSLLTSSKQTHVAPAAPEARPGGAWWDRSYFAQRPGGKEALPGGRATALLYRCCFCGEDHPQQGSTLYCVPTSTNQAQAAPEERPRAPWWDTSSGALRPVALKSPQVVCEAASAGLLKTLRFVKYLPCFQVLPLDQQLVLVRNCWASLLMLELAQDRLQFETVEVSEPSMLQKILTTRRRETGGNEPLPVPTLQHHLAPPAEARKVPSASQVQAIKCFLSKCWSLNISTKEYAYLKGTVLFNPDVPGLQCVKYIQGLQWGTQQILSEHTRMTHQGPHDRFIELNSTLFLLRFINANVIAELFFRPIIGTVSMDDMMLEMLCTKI
The format is functional, cell-based.

Assay [10] can be described thus: cells. Format: functional, cell-based.
Assay [11] in a line: luciferase reporter signal reduction – luminescence, H4-C neuroglioblastoma cells, dose response (AID 2458).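 Note: H4 neuroglioblastoma cells stably carrying a luciferase reporter gene fusion.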 Format: functional, cell-based.
Another assay deals with Paired box protein Pax-8 (Homo sapiens, UniProt Q06710). The assay is described as follows: inhibitors of PAX8-driven TPO luciferase reporter, dose response, RMG-I cells, cherry-pick (AID 687027).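 Note: luciferase reporter driven by Pax8 target thyroperoxidase promoter measured by SteadyGlo luminescence.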 Format: functional, cell-based.
Assay [12] is described as follows: inhibitors of firefly luciferase expression or activity, dose response, H4 neuroglioma cells, luminescence (AID 1990). Format: functional, cell-based.
Assay [13] in a line: Luminescence Cell-Based Dose Response HTS to Identify Inhibitors of 5'UTR Stem-Loop Driven Prion Protein mRNA Translation in H4 Neuroglioblastoma Cells. [Related pubchem assays: 1827 (Project Summary), 1813 (Primary HTS)]. The format is functional.
A short description of assay [14]: inhibitors of SNCA 5'UTR-driven translation, confirmation, luminescence, H4 neuroglioblastoma cells, dose confirmation (AID 2454).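 Note: H4 neuroglioblastoma cells carrying an alpha-synuclein 5'UTR luciferase reporter; potency for inhibition of the luciferase signal.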 The format is functional, cell-based.
The nature of assay [15]: cells. Format: functional, cell-based. The source holds these as a separate data set.
Assay [16] can be described thus: inhibitors of SNCA 5'UTR-driven reporter translation, confirmation, H4 neuroglioma cells, luminescence (AID 1988). The format is functional, cell-based.
The target in assay [17] is Melanin-concentrating hormone receptor 1 (Homo sapiens, UniProt Q99705). The assay is described as follows: Fluorescence-based counterscreen for antagonists of the G-protein coupled receptor 7 (GPR7): cell-based high throughput dose response assay to identify antagonists of the melanin-concentrating hormone receptor 1 (MCHR1). Format: functional.
Chain of Melanin-concentrating hormone receptor 1 (Q99705 whole entry): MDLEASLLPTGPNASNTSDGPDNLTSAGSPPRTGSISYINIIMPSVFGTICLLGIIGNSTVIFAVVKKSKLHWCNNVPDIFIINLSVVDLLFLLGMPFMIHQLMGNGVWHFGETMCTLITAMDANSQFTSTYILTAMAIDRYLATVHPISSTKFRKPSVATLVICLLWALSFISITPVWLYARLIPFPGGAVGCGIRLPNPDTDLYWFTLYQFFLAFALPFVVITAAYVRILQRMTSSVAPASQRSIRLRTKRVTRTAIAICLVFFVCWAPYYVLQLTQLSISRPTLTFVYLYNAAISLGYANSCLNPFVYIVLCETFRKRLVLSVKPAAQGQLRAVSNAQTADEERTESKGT
For assay [18], the system named is Streptococcus sp. 'group A'. The assay is described as follows: growth inhibition of control SK(-) GAS strain, dose response, counter-screen for streptokinase expression inhibitor project, luminescence, kanamycin, BacTiterGlo, confirmation (AID 1900). The format is functional, organism-based.
The subject of the next assay is Streptococcus. The assay is described as follows: Group A Streptococcus viability loss, dose response, counter-screen for streptokinase expression inhibitor project, luminescence, BacTiterGlo (AID 1915).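 Note: potency for reduction of bacterial viability or growth.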 Format: functional, organism-based.

Chain of Procathepsin L (P07711 whole entry): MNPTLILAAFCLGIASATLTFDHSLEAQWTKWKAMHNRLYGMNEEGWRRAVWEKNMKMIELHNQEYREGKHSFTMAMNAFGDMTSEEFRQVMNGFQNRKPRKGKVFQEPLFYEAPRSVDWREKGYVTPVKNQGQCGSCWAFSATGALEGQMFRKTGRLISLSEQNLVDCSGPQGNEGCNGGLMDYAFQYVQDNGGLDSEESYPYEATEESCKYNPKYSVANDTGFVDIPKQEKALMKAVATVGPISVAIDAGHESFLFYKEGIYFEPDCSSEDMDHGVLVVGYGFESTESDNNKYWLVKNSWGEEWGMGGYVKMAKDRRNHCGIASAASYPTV
Chain of Large T antigen (P03070 whole entry): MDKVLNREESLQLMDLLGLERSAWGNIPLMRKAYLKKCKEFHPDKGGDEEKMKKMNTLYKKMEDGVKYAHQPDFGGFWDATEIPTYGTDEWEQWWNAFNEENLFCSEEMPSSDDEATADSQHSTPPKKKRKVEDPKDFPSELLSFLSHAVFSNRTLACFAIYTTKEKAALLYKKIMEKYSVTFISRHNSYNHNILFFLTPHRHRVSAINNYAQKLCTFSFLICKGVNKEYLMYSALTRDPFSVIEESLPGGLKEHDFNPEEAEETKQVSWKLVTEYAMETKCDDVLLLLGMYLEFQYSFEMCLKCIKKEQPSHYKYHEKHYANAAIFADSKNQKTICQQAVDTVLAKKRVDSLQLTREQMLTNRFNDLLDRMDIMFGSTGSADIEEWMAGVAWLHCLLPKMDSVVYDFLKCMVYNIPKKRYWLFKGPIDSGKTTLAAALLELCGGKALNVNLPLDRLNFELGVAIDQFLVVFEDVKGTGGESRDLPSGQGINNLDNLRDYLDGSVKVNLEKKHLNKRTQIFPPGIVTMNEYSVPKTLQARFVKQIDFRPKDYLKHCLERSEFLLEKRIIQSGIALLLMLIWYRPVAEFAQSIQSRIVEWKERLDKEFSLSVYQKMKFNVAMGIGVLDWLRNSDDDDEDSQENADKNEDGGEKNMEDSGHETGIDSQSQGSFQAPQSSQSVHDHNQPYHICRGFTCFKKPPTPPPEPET

As for `CC(C)CC(NC(=O)c1ccc(Cl)cc1)C(=O)OCc1cc([N+](=O)[O-])cc2c1OCOC2` (configuration not stated), the EC50 (in the assay on HEK293; in [1]; in assay [2]) was > 35.4 µM (not active) each time.
Turning to `O=C(CSc1nn(-c2ccccc2)c(=S)s1)Nn1cnnc1`, the IC50 on Aspartyl aminopeptidase is 1.61 µM (active); at Procathepsin L it was > 59.6 µM (not active).
Consider `CCOc1ccccc1C1C(C(=O)Nc2ccccc2OC)=C(C)Nc2nnnn21` (configuration not stated), for which the 50% effective concentration (EC50) in assay [3] was > 10 µM (not active).
For the compound `C=C(C)C(O)/C=C/c1ccc(OC)cc1` (configuration not stated), the AC50 is 2.51 µM (inconclusive) on Cytochrome P450 2C9 and 0.501 µM (inconclusive) at Cytochrome P450 2C19.
As for `COC(=O)CN1CCN(C(=O)c2ccc(F)cc2)c2ccccc2C1`, the EC50 in assay [3] is > 50 µM (not active).
Take `O=C(/C=C\c1ccccc1)NCC(=O)N/N=C/c1ccc(O)cc1O`: the AC50 in assay [4] is 11.1 µM (active); in assay [6], 7.99 µM (active). For the same compound, the EC50 in assay [5] was 23.1 µM (inactive).
With `CC(C)Oc1ccc(CC2CCC(=O)N(C)C2=O)cc1` (configuration not stated), the AC50 in [7] was 26.2 µM (active).
Take `COc1ccc(-c2csc(N3CCN(c4cc(C)nc5ccccc45)CC3)n2)cc1OC`: the EC50 in [5] was 21.4 µM (inactive). Besides, in assay [8], the IC50 was 11.8 µM (active).
On to `O=C(CSc1nnc[nH]1)Nc1nc(-c2ccccc2)ns1`, for which the values for the IC50 on Aspartyl aminopeptidase and on Procathepsin L were 0.442 µM (active) and > 59.6 µM (not active), respectively.
As for `COc1ccc(-c2ccc(OC(=O)NC3CCS(=O)(=O)C3)cc2)cc1` (configuration not stated), in assay [7], the AC50 is 30.7 µM (active). Moreover, at Large T antigen, the IC50 is 9.45 µM (active).
Consider `Cc1cc(C)c2nc(SCC(=O)N3CC(=O)Nc4ccccc43)c(C#N)cc2c1`, for which the IC50 (in [9]; in “cells [10]”) was > 67.5 µM (inactive) in each case. The EC50 is 0.665 µM (active) in assay [11]; 0.13 µM (active) in assay [12]; 0.217 µM (active) in [13]; > 12 µM (inconclusive) in assay [14]; > 12 µM (not active) in the assay “cells [15]”; < 0.1 µM (active) in [16]. In addition, the AC50 at Paired box protein Pax-8 is 1.25 µM (active).
`COc1ccccc1C1CC(c2ccc(Cl)cc2)N=C2N=CNN21` (configuration not stated): in assay [17], the IC50 is listed as 24.5 µM (not active).
For `CCOC(c1cc(OC)cc([N+](=O)[O-])c1OC)C(C)C(OC)[C@@H](C)/C=C/CC(=O)OC` (some centres not stated), the AC50 at Cytochrome P450 2C9 is 2.51 µM (inconclusive).
In the case of `CCc1ccc2c(c1)C1(NN=C(c3cccc4ccccc34)S1)C(=O)N2` (configuration not stated), the half-maximal effective concentration (EC50) in assay [11] is 1.25 µM (active); in assay [12] it was 38.5 µM (active); in assay [13], < 0.1 µM (active); in [18], < 0.06 µM (active); in assay [14] it was 2.85 µM (inconclusive); in the assay on Streptococcus it was 0.706 µM (active). Moreover, the concentration for a half-maximal effect (EC50) in the assay “cells [15]” was 0.875 µM (active); in assay [16], < 0.1 µM (active).
Turning to `CCSc1nnc(NC(=O)CCNS(=O)(=O)c2cc(Br)cnc2N)s1`, the results for the EC50 (in the assay with HEK293; in assay [1]; in assay [2]) were 9.32 µM (active), 11.7 µM (not active) and 13.7 µM (not active), respectively.
For `Cc1cc(C(=O)N2CCC(Cc3ccccc3)CC2)ccc1[N+](=O)[O-]`, in assay [17], the IC50 is reported as 16.6 µM (not active).
